Consider 6 compounds from patent US10975081B2, “Substituted fused pyrazole compounds and their use as LRRK2 inhibitors” (GlaxoSmithKline Intellectual Property Development Limited, priority 2015, dated 2021).

Assay [1] concerns the target Full length G2019 human LRRK2 (Homo sapiens (Human), UniProt Q5S007). In words: Full length G2019 human LRRK2 inhibition mass spectrometry assay. Type of assay: biochemical. The settings on record: Full length Flag-LRRK2, 25 uM LRRKtide, 2 mM ATP; for IC50: read-out: Full length G2019 human LRRK2 Inhibition mass spectrometry assay (pIC50) (converted). As to the method: Mass Spectrometer Settings • LRRKtide Detection settings: Q1 mass 644.8 Da, Q3 mass 638.8, declustering potential 76 volts, collision energy 37 volts, CXP 34 volts • Phospho-LRRKtide Detection settings: Q1 mass 671.4 Da, Q3 mass 638.8, Declustering potential 76 volts, Collision energy 37 volts, CXP 34 volts. • A C4 cartridge was used and running buffers were: A (aqueous) 0.1% formic acid in water B (organic) 0.1% formic acid, 80% acetonitrile, 20% water • 5. Data was analysed using ActivityBase software (IDBS). A percent conversion from LRRKtide to Phospho-LRRKtide was calculated using the following formula: % conversion=(Phospho-LRRKtide product peak area/(Phospho-LRRKtide product peak area+LRRKtide substrate peak area))*100 2) Full Length G2019 Human LRRK2 Inhibition Mass Spectrometry Assay Insect Cell Cultures
Sf9 insect cells (Invitrogen Life Technologies, Carlsbad, Calif.) were maintained at 27° C. in SF 900 II SFM in 500-ml stationary flasks. The cells were maintained in exponential growth phase and subcultured twice per week. For larger volumes, cells were grown in 2-liter shaker flasks (Erlenmeyer, Corning) while being agitated with 120 rpm at 27° C. incubator shaker.
Human G2019 LRRK2 Plasmids Preparation
Primers Used for PCR Cloning:
• pHTBV-F: SEQ ID No: 1 • LRRK2 wt-F1: SEQ ID No: 2 • LRRK2 wt-R1: SEQ ID No: 3 • LRRK2 wt-F2: SEQ ID No: 4 • LRRK2 wt-R2: SEQ ID No: 5 • LRRK2 wt-F3: SEQ ID No: 6 • pHTBV-R: SEQ ID No: 7
The primers described above were used to amplify full length human LRRK2 (amino acids from 1-2527) with N terminal Flag tag from BioCat 116313 using high fidelity PCR polymerase KOD-Plus according to the manufacturer's instructions (KOD-211, TOYOBO). The PCR product was digested with BamHI and KpnI and ligated into BamHI and KpnI digested pHTBV1mcs3 (BioCat 127555). The sequence of the target fragment was confirmed by DNA sequencing. The construct BioCat141351 was generated by Novoprotein.
The G2019 full length Flag-LRRK2 coding sequence is SEQ ID No: 8.
The translated protein sequence for human G2019 full length LRRK2 flag tagged protein is SEQ ID No: 9.
Generation of the BacMam Virus
To generate the recombinant BacMam virus, SF9 cells were seeded in 6-well tissue culture dishes at 9×10^5 cells/well and allowed to attach for 20 min. Transfection procedure was followed using AESOP AP5911v2. Briefly, DH10Bac competent cells (10361-012, Invitrogen) were transformed by the genotypically normal human LRRK2 BacMam plasmid to generate the recombinant baculovirus DNA. The Sf9 insect cells were co-transfected with the mixture of recombinant baculovirus DNA and cellfectin (10362-100, Invitrogen). After 4 h of incubation at 27° C., the transfection media was replaced with Sf-900 III SFM medium containing 5% HI FBS (Ser. No. 10/100,147, Invitrogen). The cells were further incubated for 4 days. The infected cell culture medium containing the baculovirus (P0 virus stock) was collected and amplified by further infecting the Sf9 cells at multiplicity of infection (MOI) (pfu/cell) of 0.1.
Quantification of BacMam Viral Titre by BacPAKRapid Titer
The viral titre, measured as plaque forming unit (pfu)/ml was determined using BacPAK Papid Titer Kit (631406, Clontech) according to the manufacturer's protocol. The Sf9 cells seeded in 96-well plate with 3×10^5 cells per well were incubated with serial dilution of the viral stocks for 1 h at 27° C., 50 μl methyl cellulose overlay was added to each well followed by 43-47 h incubation. The cells were then fixed in 4% paraformaldehyde (PFA). After blocking the cells with diluted normal goat serum, Mouse anti-gp64 antibody was added to the cells. After 30 min incubation, the cells were washed with phosphate buffered saline containing 0.1% Triton-X100 (PBST) and incubated for another 30 min with goat anti-mouse antibody/HRP conjugate. This was followed by blue peroxidase substrate which detects the single infected cells and foci of infected cells by their dark blue color. […]

Assay [2] deals with LRRK2 Ser935 phosphorylation in SH-SY5Y cells over-expressing recombinant full length LRRK2 (Homo sapiens (Human), UniProt Q5S007). Nature of the assay: Recombinant cellular LRRK2 AlphaScreen assay. Type of assay: cell-based. The settings on record: 60 minutes, read-out: Recombinant cellular LRRK2 alphaScreen assay (pIC50) (converted). The text has this:
To determine the activity of compounds against LRRK2 kinase activity in cells, the observed LRRK2 kinase-dependent modulation of LRRK2 Ser 935 phosphorylation (Dzamko et al., 2010, Biochem. J. 430: 405-413) was utilized to develop a quantitative 384 well plate-based immunoassay of LRRK2 Ser935 phosphorylation in the human neuroblastoma cell line SH-SY5Y, engineered to over-express recombinant full length LRRK2 protein.
A BacMam virus expressing full length recombinant LRRK2 was purchased from Invitrogen and amplified by inoculation of SF-9 cells at MOI 0.3 for 4-5 days in Sf-900 III SFM medium supplemented with 3% fetal bovine serum. Infected cell cultures were then centrifuged at 2000 g for 20 minutes, viral supernatant titer determined by anti-gp64 plaque assay and stored at 4° C.
Affinity-purified anti-phospho LRRK2 Ser935 sheep polyclonal antibody (Dzamko et al., 2010, Biochem. J. 430: 405-413) was biotinylated by standard methods (PerkinElmer). Anti-LRRK2 rabbit polyclonal antibody was purchased from Novus Biologicals. AlphaScreen Protein A IgG Kit (including acceptor and donor beads) was purchased from Perkin Elmer.
SH-SY5Y cells were grown in DMEM/F12 medium with 10% dialysed fetal bovine serum and harvested by treatment with 0.5% trypsin-EDTA for 5 minutes at 37° C. followed by centrifugation at 1000 rpm for 4 minutes. The cell pellet was resuspended in Opti-MEM reduced serum media (Invitrogen) at 200,000 cells/ml and mixed with the BacMam LRRK2 virus at M01=50. 50 μl cell solutions were then dispensed to each well of a 384-well plate and incubated at 37° C., 5% CO2 for 24 hours.
Serial dilutions of test compounds were prepared in Opti-MEM reduced serum media (Invitrogen) and 5.6 ul transferred from compound plate to cell assay plate to achieve a top final assay concentration of 10 uM. DMSO was used in certain wells as controls. Cells were incubated at 37° C., 5% CO2 for 60 minutes. The medium was then removed and cells lysed by addition of 20 ul cell lysis buffer (Cell Signaling Technology) and incubation at 4° C. for 20 minutes. 10 ul of antibody/acceptor bead mix [( 1/1000 biotinylated-pS935 LRRK2 antibody, 1/1000 total-LRRK2 antibody, 1/100 Acceptor beads in AlphaScreen detection buffer (25 mM Hepes (pH 7.4), 0.5% Triton X-100, 1 mg/ml Dextran 500 and 0.1% BSA)] was then added to each well and plates incubated for 2 hours at ambient temperature in the dark. 10 μl of donor beads solution (1/33.3 donor beads in AlphaScreen detection buffer) was then added to each well. Following incubation for a further 2 hours at ambient temperature in the dark, plates were read on an EnVision™ plate reader at emission 520-620 nm with excitation 680 nm. Dose response curve data was based on sigmoidal dose-response model.

The target of assay [3] is Truncated G2019 human LRRK2 (1326-2527) (Homo sapiens (Human), UniProt Q5S007). Nature of the assay: Truncated G2019 human LRRK2 (1326-2527) inhibition mass spectrometry assay. In kind it is biochemical. The settings on record: 6HIS-Tev-LRRK2 (1326-2527), 25 uM LRRKtide, 20 uM ATP; read-out: Truncated G2019 human LRRK2 inhibition mass spectrometry assay (pIC50) (converted). The text has this: 1) Truncated G2019 Human LRRK2 (1326-2527) Inhibition Mass Spectrometry Assay
A LRRK2 cDNA encoding residues 1326-2527 was received from Dundee University (described in M. Jaleel et al., 2007, Biochem J, 405: 407-417). This gene fragment was subcloned into pFB-HTb (Invitrogen) using BamHI and NotI restriction sites. The LRRK2 plasmid was recombined into the baculovirus genome according to the BAC-to-BAC protocol described by Invitrogen. Transfection into Spodoptera frugiperda (Sf9) insect cells was performed using Cellfectin (Invitrogen), according to the manufacturer's protocol to generate P1 and P2 baculovirus stocks.
Sf9 cells were grown in HyClone SFX (Thermo Scientific) growth media at 27° C., 80 rpm in shake flask until of a sufficient volume to inoculate a bioreactor. The cells were grown in a 20 litre working volume Wave bioreactor (GE Healthcare) at 27° C., 50% dissolved oxygen and an agitation rate 22 rocks per minute, 10 degree rock angle, 200 ml/min air with a cell concentration of approximately 6xe6 cells/ml. The cells were infected with P2 Baculovirus at a multiplicity of infection (MOI) of 3. The cultivation was continued for a 48 hour expression phase. The infected cells were removed from the growth media by centrifugation at 2500 g using a Sorvall RC 3C Plus centrifuge at 2500 g for 20 minutes. The cell pellet was immediately frozen and subsequently supplied for purification.
A 260 g pellet was allowed to thaw in a water bath at 27° C. with 800 ml lysis buffer/buffer A (50 mm Tris-HCl pH 8.5, 300 mM NaCl, 1 mm DTT, 10% glycerol, 1 ml/L Calbiochem complete protease inhibitor cocktail and benzonase (50 ul/800 ml)) before being dounce homogenised on ice using 20 strokes per 100 ml. The suspension was packed in ice and sonicated at 50% amplitude for 3 min 10 sec on/off using a ¾″ probe. The suspension was then centrifuged at 100,000 g for 90 min, at 4° C.
The lysate (700 ml) was decanted from the insoluble pellet and contacted for 3h at 4° C. with 10 ml His bind Ni NTA resin by end over end mixing. The resin was recovered by centrifugation, 3000 g, 5 min at 4° C., and packed in an XK16 column. The column was then washed with 10 column volumes buffer A, 10 column volumes buffer B (buffer A+1M NaCl) and 10 column volumes buffer C (buffer A+20 mM imidazole). The column was then eluted with 15 column volumes buffer D (buffer A+300 mM imidazole) collecting 2 ml fractions. All washes and elution were conducted at 4 ml/min.
Fractions identified by SDS-PAGE as containing protein of interest were pooled and loaded directly onto a 320 ml SEC Superdex 200 pg column that was pre-equilibrated with buffer E (50 mM Tris-HCl pH 8.5, 300 mM NaCl, 10% glycerol, 1 mM DTT). The column was loaded and eluted with 1.2 column volumes buffer E at 2 ml/min collecting 2 ml fractions. Fractions identified by SDS-PAGE as containing protein of interest were tested for activity.
Production of LRRKtide for LRRK2 Inhibition Mass Spectrometry Assay
The ‘LRRKtide’ peptide (SEQ ID NO. 10) was synthesized as follows. The protected peptide was assembled on a solid-phase synthesiser using preloaded Wang resin and utilising standard Fmoc synthesis protocols. The crude peptide was obtained after cleavage from the resin with a mixture of trifluoroacetic acid (TFA), triisopropylsilane and water (95:2.5:2.5) for 3 hours at room temperature and was then purified using a C18 reverse-phase column utilising a 0.1% TFA-buffered water/acetonitrile gradient. The resulting fractions were analysed and fractions which were >95% pure by analytical HPLC and giving the correct molecular weight (mw) (by MALDiTOF mass spectroscopy) were pooled and freeze dried. The final material was analysed by HPLC and MALDiTOF mass spectroscopy.
Truncated G2019 Human LRRK2 (1326-2527) Inhibition Mass Spectrometry Assay […]

Full length G2019 human LRRK2, sequence (Q5S007 other isoform, or with tags, fused parts or gaps): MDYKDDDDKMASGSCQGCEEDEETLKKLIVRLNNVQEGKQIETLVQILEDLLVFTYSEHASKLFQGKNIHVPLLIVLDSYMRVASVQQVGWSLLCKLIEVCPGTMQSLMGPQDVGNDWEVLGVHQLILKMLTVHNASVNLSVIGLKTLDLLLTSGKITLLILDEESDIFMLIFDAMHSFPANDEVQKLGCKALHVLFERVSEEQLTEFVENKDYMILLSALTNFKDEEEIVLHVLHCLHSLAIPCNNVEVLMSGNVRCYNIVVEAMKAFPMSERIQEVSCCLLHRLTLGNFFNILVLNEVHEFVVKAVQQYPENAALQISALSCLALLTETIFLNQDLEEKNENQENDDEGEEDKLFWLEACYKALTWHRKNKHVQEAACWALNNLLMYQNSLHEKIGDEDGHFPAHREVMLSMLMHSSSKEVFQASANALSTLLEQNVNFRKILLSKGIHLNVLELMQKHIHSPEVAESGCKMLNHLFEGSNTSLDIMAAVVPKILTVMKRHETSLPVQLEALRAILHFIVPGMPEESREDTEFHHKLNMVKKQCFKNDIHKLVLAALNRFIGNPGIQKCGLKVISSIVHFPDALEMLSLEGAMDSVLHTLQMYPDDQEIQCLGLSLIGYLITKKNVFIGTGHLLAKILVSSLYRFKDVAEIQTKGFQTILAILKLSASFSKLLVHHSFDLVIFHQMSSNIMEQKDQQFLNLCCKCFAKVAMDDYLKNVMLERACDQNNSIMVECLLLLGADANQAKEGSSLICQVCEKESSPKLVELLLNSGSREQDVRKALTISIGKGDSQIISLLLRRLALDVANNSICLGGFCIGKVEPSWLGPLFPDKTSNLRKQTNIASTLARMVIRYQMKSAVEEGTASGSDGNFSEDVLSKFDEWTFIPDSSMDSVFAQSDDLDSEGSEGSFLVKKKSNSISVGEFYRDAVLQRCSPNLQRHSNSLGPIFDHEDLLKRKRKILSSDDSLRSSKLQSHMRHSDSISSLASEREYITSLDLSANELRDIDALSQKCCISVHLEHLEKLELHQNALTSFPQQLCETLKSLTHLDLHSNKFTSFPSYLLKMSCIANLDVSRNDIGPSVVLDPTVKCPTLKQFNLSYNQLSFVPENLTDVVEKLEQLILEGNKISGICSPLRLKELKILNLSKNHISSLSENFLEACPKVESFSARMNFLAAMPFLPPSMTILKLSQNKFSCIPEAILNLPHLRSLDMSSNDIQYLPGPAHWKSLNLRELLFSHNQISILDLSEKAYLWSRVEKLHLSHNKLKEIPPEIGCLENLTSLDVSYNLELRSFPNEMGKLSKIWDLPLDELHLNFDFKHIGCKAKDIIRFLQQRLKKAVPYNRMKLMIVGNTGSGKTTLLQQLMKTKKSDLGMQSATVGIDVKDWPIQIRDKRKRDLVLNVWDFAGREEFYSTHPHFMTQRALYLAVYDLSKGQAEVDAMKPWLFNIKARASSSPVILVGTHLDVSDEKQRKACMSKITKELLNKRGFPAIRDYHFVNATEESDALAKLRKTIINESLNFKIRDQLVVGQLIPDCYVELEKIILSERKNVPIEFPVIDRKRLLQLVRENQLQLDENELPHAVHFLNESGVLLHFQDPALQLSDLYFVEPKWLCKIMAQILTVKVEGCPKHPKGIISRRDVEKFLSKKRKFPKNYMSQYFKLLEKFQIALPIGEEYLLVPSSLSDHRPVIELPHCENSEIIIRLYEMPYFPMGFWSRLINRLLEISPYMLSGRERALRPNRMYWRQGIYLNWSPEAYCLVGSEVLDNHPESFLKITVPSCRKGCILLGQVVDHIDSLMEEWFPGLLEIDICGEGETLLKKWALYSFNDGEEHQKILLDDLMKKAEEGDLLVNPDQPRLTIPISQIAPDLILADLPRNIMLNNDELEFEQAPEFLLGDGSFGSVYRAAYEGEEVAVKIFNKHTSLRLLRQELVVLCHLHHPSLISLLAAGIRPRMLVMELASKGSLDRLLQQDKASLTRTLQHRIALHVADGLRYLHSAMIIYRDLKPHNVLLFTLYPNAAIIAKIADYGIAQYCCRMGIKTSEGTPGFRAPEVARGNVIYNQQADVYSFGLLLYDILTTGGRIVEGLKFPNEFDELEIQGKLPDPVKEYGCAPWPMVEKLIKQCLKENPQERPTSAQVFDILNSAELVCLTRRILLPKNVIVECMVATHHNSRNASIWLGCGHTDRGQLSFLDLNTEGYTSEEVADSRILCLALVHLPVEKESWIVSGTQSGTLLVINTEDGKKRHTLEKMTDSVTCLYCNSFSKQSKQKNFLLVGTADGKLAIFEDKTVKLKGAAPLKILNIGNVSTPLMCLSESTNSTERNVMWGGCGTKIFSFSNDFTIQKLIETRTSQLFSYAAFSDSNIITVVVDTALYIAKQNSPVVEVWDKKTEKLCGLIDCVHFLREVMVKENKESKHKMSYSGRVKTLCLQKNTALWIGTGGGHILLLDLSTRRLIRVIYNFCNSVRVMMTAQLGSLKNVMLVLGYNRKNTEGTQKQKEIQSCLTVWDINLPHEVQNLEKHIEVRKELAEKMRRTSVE
LRRK2 Ser935 phosphorylation in SH-SY5Y cells over-expressing recombinant full length LRRK2, sequence (Q5S007 whole entry): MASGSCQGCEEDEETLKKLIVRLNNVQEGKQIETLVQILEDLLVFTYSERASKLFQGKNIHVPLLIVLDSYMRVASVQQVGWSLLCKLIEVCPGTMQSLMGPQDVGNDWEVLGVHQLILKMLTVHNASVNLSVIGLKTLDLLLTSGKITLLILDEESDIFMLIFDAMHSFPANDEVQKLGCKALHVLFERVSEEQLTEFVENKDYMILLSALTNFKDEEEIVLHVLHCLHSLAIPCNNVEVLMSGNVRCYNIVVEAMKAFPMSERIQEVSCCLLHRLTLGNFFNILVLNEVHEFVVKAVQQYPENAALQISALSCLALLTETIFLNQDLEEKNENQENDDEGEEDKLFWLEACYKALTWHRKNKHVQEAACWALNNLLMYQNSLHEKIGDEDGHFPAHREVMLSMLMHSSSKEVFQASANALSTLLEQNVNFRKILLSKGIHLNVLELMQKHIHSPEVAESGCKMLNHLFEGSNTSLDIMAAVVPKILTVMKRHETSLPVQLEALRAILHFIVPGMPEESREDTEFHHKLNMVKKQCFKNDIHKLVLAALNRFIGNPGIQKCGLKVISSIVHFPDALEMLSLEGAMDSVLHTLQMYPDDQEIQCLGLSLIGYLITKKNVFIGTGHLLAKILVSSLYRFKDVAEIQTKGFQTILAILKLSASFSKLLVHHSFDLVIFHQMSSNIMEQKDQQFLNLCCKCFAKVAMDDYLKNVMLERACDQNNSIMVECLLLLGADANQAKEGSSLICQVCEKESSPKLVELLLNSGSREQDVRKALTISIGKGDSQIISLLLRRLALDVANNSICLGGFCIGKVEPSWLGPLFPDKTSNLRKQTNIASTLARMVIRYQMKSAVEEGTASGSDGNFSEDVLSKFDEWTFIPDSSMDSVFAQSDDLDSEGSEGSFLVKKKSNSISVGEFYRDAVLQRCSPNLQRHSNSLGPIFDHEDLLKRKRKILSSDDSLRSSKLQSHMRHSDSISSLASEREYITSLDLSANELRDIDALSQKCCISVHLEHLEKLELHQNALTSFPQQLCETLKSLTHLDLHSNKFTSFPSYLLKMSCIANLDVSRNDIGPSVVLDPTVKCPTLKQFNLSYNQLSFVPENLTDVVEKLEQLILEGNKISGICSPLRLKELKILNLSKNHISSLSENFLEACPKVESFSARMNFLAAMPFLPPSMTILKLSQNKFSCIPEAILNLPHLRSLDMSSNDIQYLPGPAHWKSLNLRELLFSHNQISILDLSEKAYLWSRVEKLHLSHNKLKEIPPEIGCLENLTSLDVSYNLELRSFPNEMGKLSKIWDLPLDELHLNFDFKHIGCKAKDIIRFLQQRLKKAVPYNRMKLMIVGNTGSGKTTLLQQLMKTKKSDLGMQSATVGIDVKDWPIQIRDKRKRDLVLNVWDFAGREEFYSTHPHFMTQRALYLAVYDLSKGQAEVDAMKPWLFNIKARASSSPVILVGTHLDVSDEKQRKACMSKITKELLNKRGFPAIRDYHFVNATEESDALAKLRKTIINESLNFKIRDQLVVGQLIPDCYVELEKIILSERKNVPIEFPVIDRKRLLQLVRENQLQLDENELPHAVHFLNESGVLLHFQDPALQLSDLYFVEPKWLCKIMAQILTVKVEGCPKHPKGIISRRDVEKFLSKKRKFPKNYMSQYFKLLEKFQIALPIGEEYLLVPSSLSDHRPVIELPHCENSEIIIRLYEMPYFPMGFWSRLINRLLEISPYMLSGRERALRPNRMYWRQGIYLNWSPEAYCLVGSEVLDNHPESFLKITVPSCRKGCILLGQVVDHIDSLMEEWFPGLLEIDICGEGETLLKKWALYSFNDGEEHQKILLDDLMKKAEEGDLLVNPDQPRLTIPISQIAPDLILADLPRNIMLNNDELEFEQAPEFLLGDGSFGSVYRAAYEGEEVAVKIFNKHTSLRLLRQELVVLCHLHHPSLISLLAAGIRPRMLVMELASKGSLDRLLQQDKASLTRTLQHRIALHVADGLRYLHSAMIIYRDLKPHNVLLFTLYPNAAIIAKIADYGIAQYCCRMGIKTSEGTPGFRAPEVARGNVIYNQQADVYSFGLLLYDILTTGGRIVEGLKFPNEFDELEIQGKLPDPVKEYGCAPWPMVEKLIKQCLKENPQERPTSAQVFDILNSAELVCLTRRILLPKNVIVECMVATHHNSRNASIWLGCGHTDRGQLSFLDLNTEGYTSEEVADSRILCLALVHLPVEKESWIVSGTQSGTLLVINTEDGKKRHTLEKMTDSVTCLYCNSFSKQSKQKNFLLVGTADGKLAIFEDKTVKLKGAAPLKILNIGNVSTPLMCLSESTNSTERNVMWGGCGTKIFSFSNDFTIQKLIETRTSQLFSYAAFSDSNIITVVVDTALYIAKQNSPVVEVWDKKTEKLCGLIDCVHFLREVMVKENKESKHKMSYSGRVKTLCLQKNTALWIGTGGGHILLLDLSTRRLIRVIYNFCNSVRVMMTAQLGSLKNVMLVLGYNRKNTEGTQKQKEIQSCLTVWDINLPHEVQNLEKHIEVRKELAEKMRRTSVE

For `Cc1nc(-n2ncc3cc(C)c(C4CCN(C5COC5)CC4F)cc32)cc([C@H]2C[C@@H](O)C2)n1` (single isomer, unassigned) [Example E45, (cis)-(1s,3s)-3-(6-(6-(3-Fluoro-1-(oxetan-3-yl)piperidin-4-yl)-5-methyl-1H-indazol-1-yl)-2-methylpyrimidin-4-yl)cyclobutanol], in assay [1], the IC50 was no more than 10000 nM.

As for `Cc1nc(N2CCO[C@H](CO)C2)cc(-n2ncc3cc(Cl)c(C4CCN(C5COC5)CC4)cc32)n1` [Example E208, (S)-(4-(6-(5-Chloro-6-(1-(oxetan-3-yl)piperidin-4-yl)-1H-indazol-1-yl)-2-methylpyrimidin-4-yl)morpholin-2-yl)methanol], in assay [1], the “Full length G2019 human LRRK2 Inhibition mass spectrometry assay (pIC50)” value is on record as 7.7. Besides, the IC50 in assay [2] is 39.8 nM.

For `Cc1nc(N2CCO[C@H](CO)C2)cc(-n2ncc3cc(C)c(C4CCN(C5COC5)CC4)cc32)n1` [Example E183, (S)-(4-(2-Methyl-6-(5-methyl-6-(1-(oxetan-3-yl)piperidin-4-yl)-1H-indazol-1-yl)pyrimidin-4-yl)morpholin-2-yl)methanol], in assay [1], the “Full length G2019 human LRRK2 Inhibition mass spectrometry assay (pIC50)” value was found to be 7.9. Further, the IC50 in assay [2] is 63.1 nM.

In the case of `COc1nc(N2CCO[C@@H](CO)C2)cc(-n2ncc3cc(C)c(C4CCN(C5COC5)CC4F)cc32)n1` (single isomer, unassigned) [Example E170], the IC50 in assay [1] was 7.94 nM; in assay [2] it was 5.01 nM.

Consider `Cc1nc(N2CC(O)C2)cc(-n2ncc3cc(C)c(C4CCN(C)CC4F)cc32)n1` (single isomer, unassigned) [Example E40, (cis)-1-(6-(6-(3-Fluoro-1-methylpiperidin-4-yl)-5-methyl-1H-indazol-1-yl)-2-methylpyrimidin-4-yl)azetidin-3-ol], for which the IC50 in assay [3] is 12.6 nM; in assay [2], 50.1 nM.

As to `COc1nc(N2CC(O)C2)cc(-n2ncc3cc(C)c(C4CCN(C)CC4F)cc32)n1` (single isomer, unassigned) [Example E39, (cis)-1-(6-(6-(3-Fluoro-1-methylpiperidin-4-yl)-5-methyl-1H-indazol-1-yl)-2-methoxypyrimidin-4-yl)azetidin-3-ol], the results for the IC50 in assay [3] and in assay [2] were 10 nM and 5.01 nM, respectively.
